According to patent publication US20160175802A1, “METHOD FOR MAKING A GAS FROM AN AQUEOUS FLUID,PRODUCT OF THE METHOD, AND APPARATUS THERFOR” (priority 2007, published 2016):

Columns and labels:
SG Gas under pressure = format: physicochemical
Source text: In an exemplary procedure for compression, SG Gas is discharged from the apparatus into a hose with a compressor attached. We use a Whirlwind Compressor, Model 2200-2 HPE, manufactured by High Pressure Eng. Co. Inc. A canister with pressure gauges is used to fill the chamber with SG Gas, using a hose to transport the SG Gas from the apparatus and compressor into the canister. We use an empty oxygen tank that has been vacuumed to remove any residual oxygen and water. The empty and vacuumed oxygen tank with pressure valve has a manufacturer name of White Martins, ABRE with dimensions of 23″ diameter and 19″ height. SG Gas is placed under pressure in the compression chamber up to and beyond 1,000 psi. for storage of SG Gas.
Analytical Testing and Observations of SG Gas Under pressure Maximum Pressure: SG Gas imploded when pressures exceeded 1,600 psi.
Safe Pressurization: SG Gas remains safe and stable at pressures around 1,000 psi for over 30 days. SG Gas should remain stable under pressure indefinitely, at least for a sufficient period of time to allow said gas to be utilized at time 30-60 days after generation.

[1] = Total Dissolved Solids after infusion; format: physicochemical; settings: after infusion of SG Gas into distilled water for approximately 11 minutes (start 0.33 ppm)
Source text: The resulting ionized or polarized water (“SG Gas-infused Water”) clings longer to a magnet when compared to that of regular water. Absorption over time or saturation graphs to monitor changes in the water properties infused with SG Gas including capacitance levels may be prepared. […] Other measurement: Total Dissolved Solids (TDS) dropped from a start of 0.33 ppm in untreated distilled water to a finish of 0.17 ppm after infusion of SG Gas into distilled water for a period of approximately 11 minutes. A Fluke 189True RMS Multimeter was used to measure drop in capacitance.

[2] = Storage of SG Gas in water; format: physicochemical; settings: polarized water with SG Gas treatment
Source text: Storage of SG Gas in Water: The resulting polarized water with SG Gas treatment remains stable and can be stored for 2 years or more. The actual maximum storage time has yet to be observed but in theory, SG Gas should remain permanently stable in the water.

pH test = format: physicochemical; settings: distilled water infused with SG Gas (distilled water pH 6.8)
goldfish = assay: Fish growth in home aquariums; format: in vivo; settings: SG Gas bubbled into aquarium for thirty days vs air
Source text: Fish Growth: Two home aquariums were used to hold two respective groups of goldfish. SG Gas was bubbled into one aquarium and the second with air for a period of thirty days.

Substance: hydroxyhydrogen [SG Gas]
- Maximum Pressure: pressure above which SG Gas imploded (SG Gas under pressure): exceeded 1,600 psi
- time safe and stable under pressure (SG Gas under pressure; pressures around 1,000 psi): over 30 days
- Total Dissolved Solids (TDS) [1]: 0.17 ppm
- storage time over which water remains stable [2]: ≥ 2 years
- pH (pH test): 7.6
- algae growth in aquarium tank (goldfish): less algae growth
- growth of goldfish compared with air-aerated aquarium (goldfish): at least 15%
